Measurements as given in patent publication US5464826A, “Method of treating tumors in mammals with 2',2'-difluoronucleosides” (Eli Lilly and Company, priority 1994, dated 1995).
In brackets after ≈: the same amount, converted by molar mass. Where two headings read alike, the source gives them in different places.

Key:
[1] = tested on: human leukemic cells (CCRF-CEM cell line); test: Cytotoxicity Screen (growth inhibition); type: cell-based; details: for IC50: Homo sapiens, read-out: IC50 (concentration giving 50% growth inhibition)
Excerpt: The compounds represented by formula I employed in the present invention are cytostatic in that they inhibit the growth of human leukemic cells (CCRF-CEM cell line). […] T1 TABLE 1-Cytotoxicity Screen? -Compound Name?

[2] = tested on: L1210V lymphocytic leukemia; test: L1210V Lymphocytic Leukemia Tumor System; type: in vivo, mice; details: Experiment 1, IP; for Indefinite Survivors: 45 day survivors; for Toxic Deaths: deaths/mice in group
Experimental: The study testing the efficacy of these compounds against L1210V leukemia was initiated by an IP inoculation of 1×10^6 cells. Treatment was begun 24 hours after inoculation. The response to therapy was determined by comparing the mean life span of the ten treated animals to that of the ten control animals; prolongation of life in the treated animals beyond that of controls is expressed as a percentage. In the Table, column 1 gives the example number of the compound tested; column 2, the experiment number; column 3, the dose level of the compound in mg/kg; column 4, the route of administration; column 5, the dosage schedule, that is, the days on which the compound was administered to the mice; column 6, the average increase in life span of the treated mice as compared to the control mice; column 7, the toxic deaths over the number of mice in each group; and column 8, the indefinite survivors, that is, the number of 45 day survivors in each group.

[3] = tested on: 6C3HED, CA755, P1534J, X5563; test: additional tumor test systems (summary statement); type: in vivo, mice; details: systems include 6C3HED
Excerpt: These systems include the 6C3HED lymphosarcoma, also known as the Gardner lymphosarcoma (6C3HED); the CA-755 adenocarcinoma (CA755); the P1534J lymphatic leukemia (P1534J); and the X5563 plasma cell myeloma (X5563). Each of these systems is described in detail below.
The tumor was removed from passage animals and minced into 1 to 3 mm square fragments using sterile techniques. Tumor pieces were checked for sterility using both Antibiotic Medium 1 and Brain Heart Infusion (Difco; Detroit, Mich.). Recipient mice were shaved and tumor pieces were implanted subcutaneously in the axillary region by trocar. Drug therapy on the appropriate schedule was initiated on the day after tumor implant. The compound was dissolved in saline for all experiments. All animals were weighed at the beginning and end of drug treatment. Food and water were provided ad libitum. On days 10 to 12, two dimensional measurements (width and length) of all tumors were taken using vernier calipers. Tumor weights were calculated from these measurements using the following formula: […]

[4] = tested on: X5563 plasma cell myeloma; test: X5563 plasma cell myeloma tumor model; type: in vivo, mice (C3H); details: 30.0 mg/kg; IP; Daily for 9 days
Excerpt: X5563 Myeloma--the tumor is maintained in C3H mice.
The tumor was removed from passage animals and minced into 1 to 3 mm square fragments using sterile techniques. Tumor pieces were checked for sterility using both Antibiotic Medium 1 and Brain Heart Infusion (Difco; Detroit, Mich.). Recipient mice were shaved and tumor pieces were implanted subcutaneously in the axillary region by trocar. Drug therapy on the appropriate schedule was initiated on the day after tumor implant. The compound was dissolved in saline for all experiments. All animals were weighed at the beginning and end of drug treatment. Food and water were provided ad libitum. On days 10 to 12, two dimensional measurements (width and length) of all tumors were taken using vernier calipers. Tumor weights were calculated from these measurements using the following formula:
Tumor Weight (mg)=Tumor Length (mm)×Tumor Width (mm)^2 /2
For all data, the tumor weight was rounded to the nearest tenth of a gram for analysis. No group is included in the analysis for therapeutic activity in which deaths attributable to drug toxicity exceeded 30 percent of the treated group.
In Table 3 which follows, column 1 gives the example number of the compound tested; column 2 provides the tumor system; column 3, the dose level; column 4, the route administered; column 5, the dosage schedule; column 6, the percent inhibition of the tumor; and column 7, the toxic deaths observed prior to completion of the study.

“1-(2,6-diamino-9H-purin-9-yl)-2-desoxy-2,2-difluororibose” was tested, and the “IC50 (concentration giving 50% growth inhibition)” value [1] was 0.075 µg/mL.
Compound `Nc1nc(Cl)nc2c1ncn2[C@@H]1O[C@H](CO)[C@@H](O)C1(F)F` [β-1-(2-chloro-6-amino-9H-purin-9-yl)-2-desoxy-2,2-difluororibose] has an IC50 [1] of 0.4 µg/mL (≈ 1.24 µM).
With `O=c1[nH]c(=O)c2ncn(C3O[C@H](CO)[C@@H](O)C3(F)F)c2[nH]1` (stereo partly shown) [1-(2,6-dioxo-1H,3H,9H-purin-9-yl)-2-desoxy-2,2-difluororibose] the IC50 [1] was 0.3 µg/mL (≈ 0.986 µM).
For `Nc1ncnc2c1ncn2[C@H]1O[C@H](CO)[C@@H](O)C1(F)F` [α-1-(6-amino-9H-purin-9-yl)-2-desoxy-2,2-difluororibose], the IC50 [1] was 6.9 µg/mL (≈ 24 µM).
`Nc1nc(Cl)nc2c1ncn2[C@H]1O[C@H](CO)[C@@H](O)C1(F)F` [α-1-(2-chloro-6-amino-9H-purin-9-yl)-2-desoxy-2,2-difluororibose] was tested, and the IC50 [1] was greater than 20 µg/mL.
With `Nc1ccn(C2O[C@H](CO)[C@H](O)C2(F)F)c(=O)n1` (stereo partly shown) [Example 5, 1-(4-Amino-2-oxo-1H-pyrimidin-1-yl)-2-desoxy-2,2-difluoroxylose] the “Percent Increase Life Span” value ([2]; 30.0 mg/kg, Daily for 10 days) was 57%, the “Indefinite Survivors” value ([2]; 30.0 mg/kg, Daily for 10 days) was 0 and the “Toxic Deaths” value ([2]; 30.0 mg/kg, Daily for 10 days) was 0/10. For the same compound, the “activity in additional tumor test systems (in words)” value [3] was “demonstrated activity in additional tumor test systems”, the IC50 ([1]; CCRF-CEM) was 0.3 µg/mL (≈ 1.14 µM) and the “Percent Inhibition of Tumor” value [4] was 28%. The “Toxic Deaths” value [4] was 0/10.
In the case of `Cc1cn(C2O[C@H](CO)[C@@H](O)C2(F)F)c(=O)nc1N` (stereo partly shown) [Example 4, 1-(4-Amino-5-methyl-2-oxo-1H-pyrimidin-1-yl)-2-desoxy-2,2-difluororibose], the IC50 [1] is reported as 0.3 µg/mL (≈ 1.08 µM).
In the case of `O=c1ccn(C2O[C@H](CO)[C@@H](O)C2(F)F)c(=O)[nH]1` (stereo partly shown) [Example 3, 1-(2,4-Dioxo-1H, 3H-pyrimidin-1-yl)-2-desoxy-2,2-difluororibose], the IC50 [1] is reported as 5.4 µg/mL (≈ 20.4 µM).
With `Nc1nc2c(ncn2C2O[C@H](CO)[C@@H](O)C2(F)F)c(=O)[nH]1` (stereo partly shown) [1-(2-amino-6-oxo-1H,9H-purin-9-yl)-2-desoxy-2,2-difluororibose] the IC50 [1] was 0.1 µg/mL (≈ 0.33 µM).
In the case of “1-(6-Amino-9H-purin-9-yl)-2-desoxy-2,2-difluororibose [Example 6]”, the “Percent Increase Life Span” value ([2]; 100.0 mg/kg, Daily for 9 days) is reported as 16%, the “Indefinite Survivors” value ([2]; 100.0 mg/kg, Daily for 9 days) is reported as 0 and the “Toxic Deaths” value ([2]; 100.0 mg/kg, Daily for 9 days) is reported as 0/7. For the same compound, the “Percent Increase Life Span” value ([2]; 200.0 mg/kg, Daily for 9 days) was 18%, the “Indefinite Survivors” value ([2]; 200.0 mg/kg, Daily for 9 days) was 0 and the “Toxic Deaths” value ([2]; 200.0 mg/kg, Daily for 9 days) was 0/7.
With `Nc1ncnc2c1ncn2[C@@H]1O[C@H](CO)[C@@H](O)C1(F)F` [β-1-(6-amino-9H-purin-9-yl)-2-desoxy-2,2-difluororibose] the IC50 [1] was 0.5 µg/mL (≈ 1.74 µM).
